The record followed here is PMC9661397 (Circulation, 2020).

As a reminder, the inhibition is the relative decrease from the control value, in per cent.

In data set [1] the test system is C57BL/6J mice. The data set can be described thus: In vivo electrophysiology study, AF induced by burst pacing. Set-up: species or system mouse. The following applies: for AF inducibility: 25 mg·kg−1·d−1 IP for 4 weeks (28 days).
The target in data set [2] is RIPK3 (Mus musculus, UniProt Q9QZL0). The data set can be described thus: KiNativ chemoproteomic kinase profiling in mouse heart lysate. To be noted: read-out: % inhibition of RIPK3. In kind it is binding.
Chain of RIPK3 (Q9QZL0 whole entry): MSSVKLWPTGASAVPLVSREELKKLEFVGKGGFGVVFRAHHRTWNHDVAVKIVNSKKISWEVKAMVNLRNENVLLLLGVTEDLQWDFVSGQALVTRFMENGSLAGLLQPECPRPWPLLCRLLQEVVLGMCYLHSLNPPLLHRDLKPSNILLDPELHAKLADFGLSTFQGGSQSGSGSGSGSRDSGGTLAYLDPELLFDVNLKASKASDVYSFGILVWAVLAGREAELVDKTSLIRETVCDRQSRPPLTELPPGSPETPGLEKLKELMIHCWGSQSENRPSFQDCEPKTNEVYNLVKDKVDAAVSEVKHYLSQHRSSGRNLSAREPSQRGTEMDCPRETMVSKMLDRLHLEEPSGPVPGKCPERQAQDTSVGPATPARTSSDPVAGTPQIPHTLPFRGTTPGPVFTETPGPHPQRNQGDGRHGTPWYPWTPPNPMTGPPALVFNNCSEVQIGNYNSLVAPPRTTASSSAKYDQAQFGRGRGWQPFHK
The target of data set [3] is CSK (Mus musculus, UniProt P41241). Described as above. Type of data set: binding.
Chain of CSK (P41241 whole entry): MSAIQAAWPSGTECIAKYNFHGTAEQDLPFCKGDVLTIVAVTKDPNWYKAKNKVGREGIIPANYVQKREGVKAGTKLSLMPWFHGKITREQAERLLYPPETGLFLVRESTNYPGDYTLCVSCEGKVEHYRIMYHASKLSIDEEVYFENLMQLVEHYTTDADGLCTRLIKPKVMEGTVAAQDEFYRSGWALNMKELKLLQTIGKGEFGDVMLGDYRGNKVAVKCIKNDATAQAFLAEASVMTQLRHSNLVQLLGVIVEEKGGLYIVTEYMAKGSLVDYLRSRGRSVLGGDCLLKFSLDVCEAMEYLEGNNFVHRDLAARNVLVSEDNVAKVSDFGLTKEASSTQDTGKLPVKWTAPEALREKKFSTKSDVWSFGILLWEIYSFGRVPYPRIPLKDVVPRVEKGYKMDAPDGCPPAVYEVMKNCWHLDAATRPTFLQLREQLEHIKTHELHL
The target in data set [4] is BTK (Mus musculus, UniProt P35991). Described as above. In kind it is binding. The following applies: read-out: % inhibition of BTK.
Chain of BTK (P35991 whole entry): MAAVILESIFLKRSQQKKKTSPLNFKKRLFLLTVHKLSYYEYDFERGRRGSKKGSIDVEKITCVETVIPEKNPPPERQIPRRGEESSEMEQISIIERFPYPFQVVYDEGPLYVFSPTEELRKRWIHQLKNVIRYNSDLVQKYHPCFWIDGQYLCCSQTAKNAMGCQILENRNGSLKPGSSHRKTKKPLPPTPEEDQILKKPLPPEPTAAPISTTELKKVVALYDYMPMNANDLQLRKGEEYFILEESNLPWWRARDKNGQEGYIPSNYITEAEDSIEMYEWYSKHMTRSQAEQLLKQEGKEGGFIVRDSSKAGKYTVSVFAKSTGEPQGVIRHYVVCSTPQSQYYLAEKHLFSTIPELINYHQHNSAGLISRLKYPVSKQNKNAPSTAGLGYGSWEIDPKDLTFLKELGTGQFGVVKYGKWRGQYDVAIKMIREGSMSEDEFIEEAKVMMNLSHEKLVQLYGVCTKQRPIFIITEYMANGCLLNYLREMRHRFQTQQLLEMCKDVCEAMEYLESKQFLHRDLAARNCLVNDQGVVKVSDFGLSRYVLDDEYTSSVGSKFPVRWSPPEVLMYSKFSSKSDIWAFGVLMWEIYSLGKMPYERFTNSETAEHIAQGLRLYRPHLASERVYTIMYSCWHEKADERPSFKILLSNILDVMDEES
Data set [5] addresses T1, MEK5 (Mus musculus, UniProt Q9WVS7).
T1 sequence (Q9WVS7 1-448): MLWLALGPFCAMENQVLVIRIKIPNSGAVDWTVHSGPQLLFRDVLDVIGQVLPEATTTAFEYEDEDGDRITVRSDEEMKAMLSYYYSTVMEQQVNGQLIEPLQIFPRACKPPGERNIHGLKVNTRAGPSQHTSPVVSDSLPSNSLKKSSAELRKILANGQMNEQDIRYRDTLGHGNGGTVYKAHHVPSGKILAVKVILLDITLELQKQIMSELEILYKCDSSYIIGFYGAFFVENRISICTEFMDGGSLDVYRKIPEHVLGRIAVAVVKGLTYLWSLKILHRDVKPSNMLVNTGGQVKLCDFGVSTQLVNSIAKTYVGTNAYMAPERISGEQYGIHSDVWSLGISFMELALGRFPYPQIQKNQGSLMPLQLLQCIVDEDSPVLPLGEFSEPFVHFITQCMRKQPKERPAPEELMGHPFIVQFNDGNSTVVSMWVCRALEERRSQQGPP
The description is as above. To be noted: read-out: % inhibition of MEK5. Type of data set: binding.

Data set [6] deals with mice. The data set can be described thus: Echocardiography and cardiac MRI of cardiac structure. Type of data set: in vivo, mouse.
Data set [7] has as its target FYN (Mus musculus, UniProt P39688). The data set can be described thus: KiNativ chemoproteomic kinase profiling in mouse heart lysate. To be noted: read-out: % inhibition of FYN. In kind it is binding.
The subject of data set [8] is TNFα. The data set can be described thus: Plasma cytokine measurement. In kind it is in vivo, mouse. To be noted: 25 mg/kg daily for 4 weeks, C57BL/6J mice, vs vehicle.
Data set [9] has as its system IL-6. The data set can be described thus: Plasma cytokine measurement. In kind it is in vivo, mouse. To be noted: 25 mg/kg daily for 4 weeks, C57BL/6J mice, vs vehicle.
The subject of data set [10] is BTK^xid mice. The following applies: 25 mg·kg−1·d−1 IP for 4 weeks, vs vehicle.
Data set [11] has as its system Fn1, Col1a1, and Col3a1 mRNA. The data set can be described thus: Quantitative real-time PCR of fibrosis markers in LA tissue. In kind it is in vivo, mouse. The following applies: 25 mg/kg daily for 4 weeks, C57BL/6J mice. A general note: Quantitative PCR measures a nucleic acid by following its amplification.
Setting [12] is: 25 mg/kg daily for 4 weeks, C57BL/6J mice, vs vehicle.

Each structure is given as a SMILES string.

Chain of FYN (P39688 whole entry): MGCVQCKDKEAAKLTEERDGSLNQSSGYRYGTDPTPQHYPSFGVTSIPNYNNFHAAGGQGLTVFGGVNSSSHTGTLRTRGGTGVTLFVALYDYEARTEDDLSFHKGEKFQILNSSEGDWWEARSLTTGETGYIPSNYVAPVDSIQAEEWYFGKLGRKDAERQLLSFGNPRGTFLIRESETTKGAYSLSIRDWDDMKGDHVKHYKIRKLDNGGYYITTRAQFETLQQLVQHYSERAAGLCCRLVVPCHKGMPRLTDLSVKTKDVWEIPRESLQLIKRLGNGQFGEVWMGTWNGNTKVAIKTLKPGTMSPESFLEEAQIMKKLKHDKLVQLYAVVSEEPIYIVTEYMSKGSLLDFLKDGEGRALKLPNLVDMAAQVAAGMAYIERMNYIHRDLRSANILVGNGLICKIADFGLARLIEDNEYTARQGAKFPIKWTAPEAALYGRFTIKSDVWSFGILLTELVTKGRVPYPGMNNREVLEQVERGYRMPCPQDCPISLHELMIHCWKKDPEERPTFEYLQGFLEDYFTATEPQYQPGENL

As for `CN(C)Cc1cccc(N/C(=C2\C(=O)Nc3cc(C(N)=O)ccc32)c2ccccc2)c1` [BIX-02188], in data set [1] (C57BL/6J mice, vs vehicle), the AF inducibility entry is given as “did not lead to an increase in AF inducibility”.
With `CC#CC(=O)N1CCC[C@H]1c1nc(-c2ccc(C(=O)Nc3ccccn3)cc2)c2c(N)nccn12` [acalabrutinib], the AF inducibility entry in data set [1] (C57BL/6J mice, vs vehicle) is “did not cause AF”. Also, the inhibition at 10 µM in data set [2] and in [4] was above 90% each time. Also, the “% inhibition of CSK” value in data set [3] (10 μM, 15 minutes, mouse heart lysate, ATP probe 20 μmol/L) is recorded as “do not inhibit CSK”.
For the compound `C=CC(=O)N1CCC[C@@H](n2nc(-c3ccc(Oc4ccccc4)cc3)c3c(N)ncnc32)C1` [ibrutinib], the inhibition at 10 µM in data set [5], in data set [2], in data set [7] and in data set [3] (read-out: % inhibition of CSK) was above 90% each time. In addition, the “left ventricular ejection fraction” value in [6] (25 mg/kg daily for 4 weeks, C57BL/6J mice, MRI) was “preserved”. Besides, the “atrial dilation (LA size)” value in data set [6] (setting [12]) is recorded as “significant atrial dilation”. The “LA enlargement (LA diameter by echocardiography)” value in [6] (BTK^xid mice, 25 mg·kg−1·d−1 IP for 4 weeks) is reported as “LA enlargement”. The “atrial effective refractory periods” value in data set [1] (setting [12]) is “prolonged”. Besides, the AF inducibility entry was “more inducible atrial fibrillation than vehicle injected mice” in [1] (C57BL/6J mice, vs vehicle) and “significant increase in AF inducibility” in [10]. Further, the “inducible AF” value in data set [1] (short duration exposure, mice) was “did not result in increased inducible AF”. Besides, the “circulating tumor necrosis factor α (TNFα)” value in data set [8] is “elevated”. For the same compound, the “circulating interleukin-6 (IL-6)” value in [9] is listed as “elevated”. In addition, the “expression of fibrosis markers fibronectin, and collagens 1α1 and 3α1” value in [11] is “increased expression”.
On to `CN1CCN(CCOc2cc(OC3CCOCC3)c3c(Nc4c(Cl)ccc5c4OCO5)ncnc3c2)CC1` [saracatinib], for which the AF inducibility entry in data set [1] (C57BL/6J mice, vs vehicle) is listed as “did not result in increased AF”.
